Measured values taken from BindingDB's records for doi:10.1016/j.jmb.2007.03.021 (University of Marburg, 2007).

target: Aldo-keto reductase family 1 member B1 (Homo sapiens, UniProt P15121); experiment: Enzyme Inhibition Assay; conditions: pH 6.2; 30 °C
Method: The activity of the test enzyme was determined spectrophotometrically by monitoring the change in absorbance at 340 nm, which is due to the oxidation of NADPH or the reduction of NAD+ catalyzed by ALR2. The determination of the IC50 values was performed by using linear regression analysis of the log dose response curve.

IC50	SMILES
10 µM	O=C(O)CN1C(=O)c2c(ccc3ccccc23)S1(=O)=O [2-(3,5,5-trioxo-5-thia-4-azatricyclo[7.4.0.0^{2,6}]trideca-1,6,8,10,12-pentaen-4-yl)acetic acid]
100 µM	Nc1cccc2c3c(ccc12)S(=O)(=O)N(CC(=O)O)C3=O [2-(10-amino-3,5,5-trioxo-5-thia-4-azatricyclo[7.4.0.0^{2,6}]trideca-1,6,8,10,12-pentaen-4-yl)acetic acid]
180 µM	O=C(O)CN1C(=O)c2c(ccc3c([N+](=O)[O-])cccc23)S1(=O)=O [2-(10-nitro-3,5,5-trioxo-5-thia-4-azatricyclo[7.4.0.0^{2,6}]trideca-1,6,8,10,12-pentaen-4-yl)acetic acid]
100 µM	Nc1cccc2ccc3c(c12)C(=O)N(CC(=O)O)S3(=O)=O [2-(13-amino-3,5,5-trioxo-5-thia-4-azatricyclo[7.4.0.0^{2,6}]trideca-1,6,8,10,12-pentaen-4-yl)acetic acid]
190 µM	O=C(O)CN1C(=O)c2c(ccc3cccc([N+](=O)[O-])c23)S1(=O)=O [2-(13-nitro-3,5,5-trioxo-5-thia-4-azatricyclo[7.4.0.0^{2,6}]trideca-1,6,8,10,12-pentaen-4-yl)acetic acid]
0.14 µM	O=C(O)CN1C(=O)c2c(c(C(=O)O)cc3ccccc23)S1(=O)=O [2-(carboxymethyl)-1-oxo-1,2-dihydronaphtho[1,2-d]isothiazole-4-carboxylic acid 3,3-dioxide]
0.55 µM	O=C(O)COC(=O)c1cc2ccccc2c2c1S(=O)(=O)N(CC(=O)O)C2=O [2-{[4-(carboxymethyl)-3,5,5-trioxo-5-thia-4-azatricyclo[7.4.0.0^{2,6}]trideca-1,6,8,10,12-pentaen-7-yl]carbonyloxy}acetic acid]
88 µM	CN1C(=O)c2c(c(C(=O)O)cc3ccccc23)S1(=O)=O [4-methyl-3,5,5-trioxo-5-thia-4-azatricyclo[7.4.0.0^{2,6}]trideca-1,6,8,10,12-pentaene-7-carboxylic acid]
